Test results published in ChEMBL document CHEMBL5678810.

How the values were obtained:
[1] = target: Vascular endothelial growth factor receptor 1 (Homo sapiens) (UniProt P17948); assay: Inhibition of T7 bacteriophage fused human FLT1 at 10 uM by KINOMEscan analysis relative to control
[2] = target: Calcium/calmodulin-dependent protein kinase type 1D (Homo sapiens) (UniProt Q8IU85); assay: Inhibition of T7 bacteriophage fused human CAMK1D at 10 uM by KINOMEscan analysis relative to control
[3] = system: Epidermal growth factor receptor (Homo sapiens), P00533 [UNDEFINED MUTATION]; assay: Inhibition of T7 bacteriophage fused human EGFR L747/T751del/Sins mutant at 10 uM by KINOMEscan analysis relative to control
Chain of Epidermal growth factor receptor (Homo sapiens), P00533 [UNDEFINED MUTATION] (P00533 whole entry, looked up, stated change not applied, the tested form may be a part): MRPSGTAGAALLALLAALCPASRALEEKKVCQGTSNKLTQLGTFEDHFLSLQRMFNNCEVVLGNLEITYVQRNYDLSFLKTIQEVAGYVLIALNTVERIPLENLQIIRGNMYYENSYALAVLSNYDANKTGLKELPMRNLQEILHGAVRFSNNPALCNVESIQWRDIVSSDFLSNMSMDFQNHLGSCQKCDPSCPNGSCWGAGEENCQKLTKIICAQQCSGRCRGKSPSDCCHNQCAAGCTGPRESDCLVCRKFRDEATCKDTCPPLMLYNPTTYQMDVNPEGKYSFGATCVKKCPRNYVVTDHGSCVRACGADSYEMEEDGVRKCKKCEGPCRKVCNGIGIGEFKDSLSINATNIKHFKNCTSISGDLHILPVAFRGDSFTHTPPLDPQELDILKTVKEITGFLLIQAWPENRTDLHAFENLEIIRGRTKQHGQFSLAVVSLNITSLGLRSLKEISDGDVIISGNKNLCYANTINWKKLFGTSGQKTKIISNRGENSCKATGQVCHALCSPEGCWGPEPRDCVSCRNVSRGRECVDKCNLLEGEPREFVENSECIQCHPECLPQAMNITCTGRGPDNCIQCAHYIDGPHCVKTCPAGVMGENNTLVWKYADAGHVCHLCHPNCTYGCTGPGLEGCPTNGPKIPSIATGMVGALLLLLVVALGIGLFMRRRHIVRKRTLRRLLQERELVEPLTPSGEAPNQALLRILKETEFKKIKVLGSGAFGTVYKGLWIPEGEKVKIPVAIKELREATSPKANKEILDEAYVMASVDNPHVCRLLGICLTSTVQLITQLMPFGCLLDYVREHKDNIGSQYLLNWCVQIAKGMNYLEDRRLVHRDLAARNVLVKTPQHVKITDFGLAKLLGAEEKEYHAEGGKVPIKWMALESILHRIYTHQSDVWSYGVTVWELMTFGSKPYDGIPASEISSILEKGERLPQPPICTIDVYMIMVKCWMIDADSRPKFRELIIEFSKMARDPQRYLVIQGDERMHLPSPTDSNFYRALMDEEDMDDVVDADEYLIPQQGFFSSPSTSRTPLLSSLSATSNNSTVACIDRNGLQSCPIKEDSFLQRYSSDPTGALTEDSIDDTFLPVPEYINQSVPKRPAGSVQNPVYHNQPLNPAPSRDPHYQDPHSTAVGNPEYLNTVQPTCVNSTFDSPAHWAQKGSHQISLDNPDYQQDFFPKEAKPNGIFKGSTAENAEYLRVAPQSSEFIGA

[4] = target: MAP kinase-activated protein kinase 5 (Homo sapiens) (UniProt Q8IW41); assay: Inhibition of T7 bacteriophage fused human MAPKAPK5 at 10 uM by KINOMEscan analysis relative to control; values are per cent of control
Chain of MAP kinase-activated protein kinase 5 (Homo sapiens) (Q8IW41 whole entry, the tested form may be a part): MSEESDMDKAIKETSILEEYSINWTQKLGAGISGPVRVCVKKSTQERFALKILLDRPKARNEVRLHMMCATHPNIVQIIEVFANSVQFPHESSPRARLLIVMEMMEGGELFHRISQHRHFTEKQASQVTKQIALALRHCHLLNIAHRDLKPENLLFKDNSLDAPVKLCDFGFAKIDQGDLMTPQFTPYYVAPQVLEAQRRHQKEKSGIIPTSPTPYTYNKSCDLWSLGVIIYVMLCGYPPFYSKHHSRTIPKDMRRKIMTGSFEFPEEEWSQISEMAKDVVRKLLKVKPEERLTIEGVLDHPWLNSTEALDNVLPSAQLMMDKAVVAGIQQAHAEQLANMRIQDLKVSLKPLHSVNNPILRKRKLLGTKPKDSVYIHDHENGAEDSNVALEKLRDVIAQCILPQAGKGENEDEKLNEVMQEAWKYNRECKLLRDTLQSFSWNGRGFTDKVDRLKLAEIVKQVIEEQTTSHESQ

[5] = target: Receptor tyrosine-protein kinase erbB-4 (Homo sapiens) (UniProt Q15303); assay: Inhibition of T7 bacteriophage fused human ERBB4 at 10 uM by KINOMEscan analysis relative to control
[6] = system: Tyrosine-protein kinase ABL1 (Homo sapiens), P00519 [M351T]; assay: Inhibition of T7 bacteriophage fused human phosphorylated ABL1 M351T mutant at 10 uM by KINOMEscan analysis relative to control
[7] = target: Ephrin type-B receptor 1 (Homo sapiens) (UniProt P54762); assay: Inhibition of T7 bacteriophage fused human EPHB1 at 10 uM by KINOMEscan analysis relative to control; values are per cent of control
[8] = target: Receptor tyrosine-protein kinase erbB-3 (Homo sapiens) (UniProt P21860); assay: Inhibition of T7 bacteriophage fused human ERBB3 at 10 uM by KINOMEscan analysis relative to control
[9] = target: Mitogen-activated protein kinase kinase kinase 6 (Homo sapiens) (UniProt O95382); assay: Inhibition of T7 bacteriophage fused human ASK2 at 10 uM by KINOMEscan analysis relative to control
[10] = target: Cyclin-dependent kinase-like 3 (Homo sapiens) (UniProt Q8IVW4); assay: Inhibition of T7 bacteriophage fused human CDKL3 at 10 uM by KINOMEscan analysis relative to control; values are per cent of control
[11] = target: Aurora kinase A (Homo sapiens) (UniProt O14965); assay: Inhibition of T7 bacteriophage fused human AURKA at 10 uM by KINOMEscan analysis relative to control
[12] = target: Serine/threonine-protein kinase Nek4 (Homo sapiens) (UniProt P51957); assay: Inhibition of T7 bacteriophage fused human NEK4 at 10 uM by KINOMEscan analysis relative to control; values are per cent of control
Chain of Serine/threonine-protein kinase Nek4 (Homo sapiens) (P51957 whole entry, looked up, the tested form may be a part): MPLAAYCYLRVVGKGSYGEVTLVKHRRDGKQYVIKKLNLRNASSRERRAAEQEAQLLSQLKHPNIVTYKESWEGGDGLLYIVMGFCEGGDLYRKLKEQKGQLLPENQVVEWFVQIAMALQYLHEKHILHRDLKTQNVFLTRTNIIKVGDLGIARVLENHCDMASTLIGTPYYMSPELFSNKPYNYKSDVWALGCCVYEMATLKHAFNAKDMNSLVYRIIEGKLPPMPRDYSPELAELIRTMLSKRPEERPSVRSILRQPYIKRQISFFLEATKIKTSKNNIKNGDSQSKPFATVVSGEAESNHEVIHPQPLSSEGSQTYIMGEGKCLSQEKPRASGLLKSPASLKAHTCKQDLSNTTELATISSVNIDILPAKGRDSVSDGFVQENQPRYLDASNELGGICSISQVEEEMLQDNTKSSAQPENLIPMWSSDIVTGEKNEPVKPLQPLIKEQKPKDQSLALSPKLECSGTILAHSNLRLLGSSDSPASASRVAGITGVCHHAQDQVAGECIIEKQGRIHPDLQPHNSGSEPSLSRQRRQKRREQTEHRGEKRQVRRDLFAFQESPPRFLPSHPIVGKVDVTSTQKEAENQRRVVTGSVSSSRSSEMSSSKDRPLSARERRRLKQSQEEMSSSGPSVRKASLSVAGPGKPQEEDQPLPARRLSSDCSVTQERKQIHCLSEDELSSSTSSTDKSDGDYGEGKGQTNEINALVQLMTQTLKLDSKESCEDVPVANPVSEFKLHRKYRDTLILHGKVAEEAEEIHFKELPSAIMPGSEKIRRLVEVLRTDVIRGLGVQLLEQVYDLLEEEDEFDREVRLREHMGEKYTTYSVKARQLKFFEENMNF

[13] = target: Protein kinase C iota type (Homo sapiens) (UniProt P41743); assay: Inhibition of T7 bacteriophage fused human PRKCI at 10 uM by KINOMEscan analysis relative to control
[14] = target: Leucine-rich repeat serine/threonine-protein kinase 2 (Homo sapiens) (UniProt Q5S007); assay: Inhibition of T7 bacteriophage fused human LRRK2 at 10 uM by KINOMEscan analysis relative to control; values are per cent of control
[15] = target: Mitogen-activated protein kinase 12 (Homo sapiens) (UniProt P53778); assay: Inhibition of T7 bacteriophage fused human p38-gamma at 10 uM by KINOMEscan analysis relative to control
Chain of Mitogen-activated protein kinase 12 (Homo sapiens) (P53778 whole entry, the tested form may be a part): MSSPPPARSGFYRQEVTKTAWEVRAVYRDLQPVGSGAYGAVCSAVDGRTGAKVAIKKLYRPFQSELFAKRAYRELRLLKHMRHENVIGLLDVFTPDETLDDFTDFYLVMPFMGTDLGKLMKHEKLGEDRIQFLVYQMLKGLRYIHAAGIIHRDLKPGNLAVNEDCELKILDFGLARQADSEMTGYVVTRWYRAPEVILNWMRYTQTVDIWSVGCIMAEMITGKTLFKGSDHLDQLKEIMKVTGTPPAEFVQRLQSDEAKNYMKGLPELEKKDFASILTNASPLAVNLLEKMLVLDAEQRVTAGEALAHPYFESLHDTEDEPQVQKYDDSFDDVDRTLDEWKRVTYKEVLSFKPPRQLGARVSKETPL

[16] = target: Serine/threonine-protein kinase tousled-like 1 (Homo sapiens) (UniProt Q9UKI8); assay: Inhibition of T7 bacteriophage fused human TLK1 at 10 uM by KINOMEscan analysis relative to control
[17] = target: Serine/threonine-protein kinase NIM1 (Homo sapiens) (UniProt Q8IY84); assay: Inhibition of T7 bacteriophage fused human NIM1 at 10 uM by KINOMEscan analysis relative to control
[18] = target: Leukocyte tyrosine kinase receptor (Homo sapiens) (UniProt P29376); assay: Inhibition of T7 bacteriophage fused human LTK at 10 uM by KINOMEscan analysis relative to control; values are per cent of control
[19] = target: Dual specificity mitogen-activated protein kinase kinase 1 (Homo sapiens) (UniProt Q02750); assay: Inhibition of T7 bacteriophage fused human MEK1 at 10 uM by KINOMEscan analysis relative to control
Chain of Dual specificity mitogen-activated protein kinase kinase 1 (Homo sapiens) (Q02750 whole entry, the tested form may be a part): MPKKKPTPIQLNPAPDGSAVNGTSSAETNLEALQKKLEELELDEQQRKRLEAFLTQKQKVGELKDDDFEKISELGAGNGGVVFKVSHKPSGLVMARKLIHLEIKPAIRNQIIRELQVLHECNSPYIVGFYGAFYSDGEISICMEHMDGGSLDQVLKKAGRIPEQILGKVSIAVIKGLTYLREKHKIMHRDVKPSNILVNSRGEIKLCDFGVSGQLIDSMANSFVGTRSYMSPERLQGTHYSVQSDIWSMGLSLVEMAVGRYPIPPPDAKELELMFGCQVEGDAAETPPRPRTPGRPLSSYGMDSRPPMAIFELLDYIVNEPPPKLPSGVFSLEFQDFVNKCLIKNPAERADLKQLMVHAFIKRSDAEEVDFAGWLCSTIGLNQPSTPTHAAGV

[20] = target: Death-associated protein kinase 2 (Homo sapiens) (UniProt Q9UIK4); assay: Inhibition of T7 bacteriophage fused human DAPK2 at 10 uM by KINOMEscan analysis relative to control; values are per cent of control
[21] = target: Membrane-associated tyrosine- and threonine-specific cdc2-inhibitory kinase (Homo sapiens) (UniProt Q99640); assay: Inhibition of T7 bacteriophage fused human PKMYT1 at 10 uM by KINOMEscan analysis relative to control
[22] = target: Tyrosine-protein kinase JAK2 (Homo sapiens) (UniProt O60674); assay: Inhibition of T7 bacteriophage fused human JAK2 JH1catalytic domain at 10 uM by KINOMEscan analysis relative to control; values are per cent of control
[23] = target: Ephrin type-B receptor 4 (Homo sapiens) (UniProt P54760); assay: Inhibition of T7 bacteriophage fused human EPHB4 at 10 uM by KINOMEscan analysis relative to control
[24] = target: cAMP-dependent protein kinase catalytic subunit PRKX (Homo sapiens) (UniProt P51817); assay: Inhibition of T7 bacteriophage fused human PRKX at 10 uM by KINOMEscan analysis relative to control
[25] = target: Serine/threonine-protein kinase 16 (Homo sapiens) (UniProt O75716); assay: Inhibition of T7 bacteriophage fused human STK16 at 10 uM by KINOMEscan analysis relative to control
Chain of Serine/threonine-protein kinase 16 (Homo sapiens) (O75716 whole entry, the tested form may be a part): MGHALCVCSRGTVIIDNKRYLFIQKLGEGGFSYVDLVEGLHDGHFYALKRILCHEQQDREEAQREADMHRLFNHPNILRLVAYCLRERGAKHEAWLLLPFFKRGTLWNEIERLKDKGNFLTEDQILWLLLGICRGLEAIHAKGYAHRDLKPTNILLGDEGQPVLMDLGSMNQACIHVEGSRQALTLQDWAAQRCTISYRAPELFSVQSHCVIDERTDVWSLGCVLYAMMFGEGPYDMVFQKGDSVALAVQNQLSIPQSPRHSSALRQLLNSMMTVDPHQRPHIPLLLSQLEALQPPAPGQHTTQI

[26] = target: Cyclin-dependent kinase 11B (Homo sapiens) (UniProt P21127); assay: Inhibition of T7 bacteriophage fused human CDC2L1 at 10 uM by KINOMEscan analysis relative to control
[27] = target: Dual specificity tyrosine-phosphorylation-regulated kinase 1B (Homo sapiens) (UniProt Q9Y463); assay: Inhibition of T7 bacteriophage fused human DYRK1B at 10 uM by KINOMEscan analysis relative to control; values are per cent of control
[28] = target: Activin receptor type-2A (Homo sapiens) (UniProt P27037); assay: Inhibition of T7 bacteriophage fused human ACVR2A at 10 uM by KINOMEscan analysis relative to control
[29] = target: Epidermal growth factor receptor (Homo sapiens) (UniProt P00533); assay: Inhibition of T7 bacteriophage fused human EGFR at 10 uM by KINOMEscan analysis relative to control; values are per cent of control
Chain of Epidermal growth factor receptor (Homo sapiens) (P00533 whole entry, the tested form may be a part): as the sequence (P00533 whole entry, looked up, stated change not applied, the tested form may be a part) above

`COc1cc(N2CCC(N3CCN(C)CC3)CC2)ccc1Nc1ncc2c(n1)N(C)c1ccccc1C(=O)N2C` was tested, and the inhibition [1] was 100%, the inhibition [2] was 69% and the inhibition [3] was 100%. It also gave a residual activity [4] of 97%, an inhibition [5] of 100% and an inhibition [6] of 94%. The residual activity [7] was 98%, the inhibition [8] was 100% and the inhibition [9] was 100%. For the same molecule, the residual activity [10] was 83%, the inhibition [11] was 1.2% and the residual activity [12] was 95%. For the same molecule, the inhibition [13] was 100%, the residual activity [14] was 0% and the inhibition [15] was 76%. For the same molecule, the inhibition [16] was 100%, the inhibition [17] was 100% and the residual activity [18] was 32%. The inhibition [19] was 100%, the residual activity [20] was 67% and the inhibition [21] was 80%. For the same molecule, the residual activity [22] was 70%, the inhibition [23] was 100% and the inhibition [24] was 99%. The inhibition [25] was 62%, the inhibition [26] was 84% and the residual activity [27] was 94%. The inhibition [28] was 100% and the residual activity [29] was 84%.
